Experimental data taken from US7205302B2, “Heterocyclic compound derivatives and medicines” (Nippon Shinyaku Co., Ltd., priority 2001, dated 2007).
Counter-ions that a name gives are not always drawn. Like-named read-outs stand apart in the source and are kept apart here.

Experiments:
[1] = tested on: ADP-induced platelet aggregation in human PRP; experiment: Human platelet aggregation inhibition test; assay type: cell-based; conditions: ADP 1×10^−5 M
Description: Human Platelet Aggregation Inhibition Test
Blood collected from healthy human volunteers into aqueous trisodium citrate solution was centrifuged at 200×g for 10 minutes and the upper layer was recovered to obtain platelet-rich plasma (PRP). The residual blood containing trisodium citrate added therein was centrifuged at 1500×g for 10 minutes and the supernatant was collected as platelet-poor plasma (PPP). The number of platelets in the PRP was adjusted to about 300,000/μl by PPP. Platelet aggregation was measured by an aggregometer. 180 μl of PRP was added to cuvettes and incubated at 37° C. for one minute, and then 10 μl of test compound solution (prepared by dissolving a test compound with a 1.5-fold mole of a sodium hydroxide solution and diluting with water) was added and the mixture was further incubated for 2 minutes. Then, 10 μl of aqueous adenosine diphosphate (ADP) solution was added to adjust the final concentration as 1×10^−5 M and platelet aggregation was induced and observed for 7 minutes. Inhibition percentage of aggregation was calculated from the percentage of aggregation upon the addition of the test compound to the percentage of aggregation upon the addition of water in place of the test compound solution (control).

mice = experiment: Single-dose toxicity test in mice; assay type: in vivo; conditions: oral, 10, 30 or 100 mg/kg
Description: Singl-Dose Toxicity Test in Mice
The compound of Example 42 was orally administered to mice (including three mice in a group) at a dose of 10, 30 or 100 mg/kg.

[2] = tested on: ADP-induced platelet aggregation in monkey PRP; experiment: Ex vivo platelet aggregation inhibition test in monkeys; parameters: species or system cynomolgus monkeys (Macaca fascicularis); conditions: for inhibition at 0.3 mg/kg / inhibition at 1 mg/kg: Macaca fascicularis, Platelet, read-out: Inhibition percentage of platelet aggregation in monkeys; for inhibition at 0.3 mg/kg: oral 0.3 mg/kg; for inhibition at 1 mg/kg: oral 1 mg/kg
Description: Ex Vivo Platelet Aggregation Inhibition Test in Monkeys
The compound of Example 84 was orally administered to two cynomolgus monkeys (Macaca fascicularis, male, aged 3 to 5) at a dose of 0.3 or 1 mg/kg. Before the administration or 2, 4 and 8 hours after the administration, blood (each 4.5 ml) was collected using an injection cylinder containing aqueous 3.8% citric acid solution in the amount of 1/10 of the volume of blood to be collected. Blood containing citric acid solution was centrifuged at 200×g for 10 minutes and the upper layer was collected as PRP. Furthermore, the residual blood was centrifuged at 1500×g for 10 minutes and the supernatant was collected as PPP. 190 μl of PRP was added to a cuvette and incubated at 37° C. for one minute, and then 10 μl of ADP solution (5 to 30 μM) was added to induce platelet aggregation. The percentage of platelet aggregation was measured by an aggregometer (PM8C, Mebanix, Tokyo) using PPP as the blank and inhibition percentage of platelet aggregation was determined by comparing the percentage of aggregation before administration of the compound with the percentage of aggregation after administration of the compound according to the following equation. Inhibition percentage of Platelet Aggregation (%)=100−(The percentage of Aggregation after administration of compound)/(The percentage of Aggregation before administration of compound)×100

[3] = molecular target: T1, PGI2 receptor (human platelet membrane, 3H-Iloprost binding) (Homo sapiens, UniProt P43119); experiment: 3H-Iloprost binding inhibition test to human platelet membrane; conditions: compound 1 μM, 5 nM 3H-Iloprost, 37° C., 10 minutes
T1 construct: Human platelet membrane of 100 μg protein was suspended; from tissue; host or cells: human platelet membrane
T1 sequence (P43119 whole entry): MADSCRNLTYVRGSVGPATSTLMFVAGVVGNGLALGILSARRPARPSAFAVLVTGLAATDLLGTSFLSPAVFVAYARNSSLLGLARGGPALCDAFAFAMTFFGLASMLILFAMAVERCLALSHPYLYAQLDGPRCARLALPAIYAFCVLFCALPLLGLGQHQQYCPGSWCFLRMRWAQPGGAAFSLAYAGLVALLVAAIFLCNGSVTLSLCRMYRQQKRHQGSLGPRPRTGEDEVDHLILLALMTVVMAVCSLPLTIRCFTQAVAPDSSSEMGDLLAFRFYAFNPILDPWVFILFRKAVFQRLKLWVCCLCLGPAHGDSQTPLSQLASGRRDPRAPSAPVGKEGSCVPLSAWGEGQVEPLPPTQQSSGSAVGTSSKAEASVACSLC
Description: ^3H-Iloprost Binding Inhibition Test to Human Platelet Membrane
The platelet membrane was collected on a glass filter and its radioactivity was measured after washing four times with 50 mM Tris-HCl buffer.

SMILES: CC(C)N(CCCCOCC(=O)O)c1cnc(-c2ccccc2)c(-c2ccccc2)n1 [Example 42, 2-{4-[N-(5,6-diphenylpyrazin-2-yl)-N-isopropylamino]butyloxy}acetic acid]
- IC50 [1]: 200 nM
- deaths after single oral dose (mice): no deaths

SMILES: Cc1ccc(-c2cnc(N(C)CCCCOCC(=O)O)nc2-c2ccc(C)cc2)cc1 [Example 75, 2-{4-[N-(4,5-di-p-tolylpyrimidin-2-yl)-N-methylamino]butyloxy}acetic acid]
- IC50 [1]: 200 nM

SMILES: CC(C)N(CCCCOCC(=O)NS(C)(=O)=O)c1cnc(-c2ccccc2)c(-c2ccccc2)n1 [Example 84, 2-{4-[N-(5,6-diphenylpyrazin-2-yl)-N-isopropylamino]butyloxy}-N-(methylsulfonyl)acetamide]
- inhibition at 0.3 mg/kg ([2]; 2 h after administration): 28%
- inhibition at 0.3 mg/kg ([2]; 4 h after administration): 34%
- inhibition at 0.3 mg/kg ([2]; 8 h after administration): 19%
- inhibition at 1 mg/kg ([2]; 2 h after administration): 63%
- inhibition at 1 mg/kg ([2]; 4 h after administration): 40%
- inhibition at 1 mg/kg ([2]; 8 h after administration): 52%
- ex vivo platelet aggregation inhibition (in words) ([2]; oral 0.3 or 1 mg/kg, 2 to 8 hours after administration): inhibits platelet aggregation persistently in a dose-dependent manner

SMILES: Cc1ccc(-c2nnc(N(CCCCOCC(=O)O)C(C)C)nc2-c2ccc(C)cc2)cc1 [Example 48, 2-{4-[N-(5,6-di-p-tolyl-1,2,4-triazin-3-yl)-N-isopropylamino]butyloxy}acetic acid]
- IC50 [1]: 400 nM
- melting point: 119 to 121 °C

SMILES: CN(CCCCOCC(=O)O)c1ccc(-c2ccccc2)c(-c2ccccc2)n1 [Example 46, 2-{4-[N-(5,6-diphenylpyridin-2-yl)-N-methylamino]butyloxy}acetic acid sodium salt]
- IC50 [1]: 500 nM

SMILES: CN(CCCCOCC(=O)O)c1c[n+]([O-])c(-c2ccccc2)c(-c2ccccc2)n1 [Example 73, 2,3-diphenyl-5-{N-[4-(carboxymethoxy)butyl]-N-methylamino}pyrazine 1-oxide]
- IC50 [1]: 200 nM
- melting point: 185 to 190 °C

SMILES: CC(C)N(CCCCSCC(=O)O)c1cnc(-c2ccccc2)c(-c2ccccc2)n1 [Example 78, 2-{4-[N-(5,6-diphenylpyrazin-2-yl)-N-isopropylamino]butylthio]acetic acid sodium salt]
- IC50 [1]: 300 nM

SMILES: CN(CCCCOCC(=O)O)c1ncc(-c2ccccc2)c(-c2ccccc2)n1 [Example 74, 2-{4-[N-(4,5-diphenylpyrimidin-2-yl)-N-methylamino]butyloxy}acetic acid]
- IC50 [1]: 800 nM

SMILES: CN(CCCCOCC(=O)O)c1cnc(-c2ccccc2)c(-c2ccccc2)n1 [Example 64, 2-{4-[N-(5,6-diphenylpyrazin-2-yl)-N-methylamino]butyloxy}acetic acid]
- inhibition of binding of 3H-Iloprost [3]: 85%
